In patent US20090252687A1, “ASYMMETRIC FLUORO-SUBSTITUTED POLYMETHINE DYES” (priority 2006, published 2009):

Test: Photostability of the fluorescence signal
Format: physicochemical
Conditions: 1:1 methanol:water; Karl Storz Xenon 175 light source at 100% intensity for 30 min; fraction of dark control
Procedure: In a further example the photostability of the fluorescence signal was measured. The photostability of Compound 3 (the fluorinated Cy3F pyrylium of Example 19) was studied in comparison with a non-fluorinated analogue, Cy3 pyrylium (Compound C)
The dyes were dissolved in a 1:1 mixture of methanol:water to give an absorbance reading of 1Au at the dyes lambda max and then diluted 20 times for fluorescence measurements. The samples were exposed to light with a Karl Storz Xenon 175 light source at 100% intensity for 30 min. The cuvette was kept in a water bath while exposed to light, to avoid heating. Fluorescence measurements were made on Cary Eclipse (Varian) fluorescence spectrophotometer 1 cm cuvette, ex/em slit 5 nm

| max fluorescence intensity relative to the dark control (photostability) | SMILES |
| --- | --- |
| 0.94 | CN(C)c1ccc2c(c1)OC(C(C)(C)C)=C/C2=C\C=C\C1=[N+](CCCCCC(=O)O)c2c(F)c(F)c(F)c(F)c2C1(C)CCCCS(=O)(=O)[O-] (centres unmarked) [Compound 3, 4-[2-{(1E,3E)-3-[2-tert-butyl-7-(dimethylamino)-4H-chromen-4-ylidene]prop-1-enyl}-1-(5-carboxypentyl)-4,5,6,7-tetrafluoro-3-methyl-3H-indolium-3-yl]butane-1-sulfonate] |
| 0.79 | CN(C)c1ccc2c(c1)OC(C(C)(C)C)=C/C2=C\C=C\C1=[N+](CCCCCC(=O)O)c2ccc(S(=O)(=O)[O-])cc2C1(C)C [Compound C] |
